Patent US10800791B2, “Triazole ACC inhibitors and uses thereof” (Gilead Apollo, LLC, priority 2015, dated 2020)
≈ marks a conversion by molar mass, not a printed value. Read-outs that look alike come from different tables or passages of the source.

Assays:
Rhizoctonia solani (Rs) = test: Growth inhibition assay of fungal pathogens, Rs; format: cell-based; settings: 48 h
Procedure: (§1) Compounds of the present invention were evaluated in a growth inhibition assay to determine the ability to control the growth of fungal pathogens, such as Botrtyis cinerea (Bc), Collectotrichum graminicola (Cg), Diplodia maydis (Dm), Fusarium moniliforme (Fm), Fusarium virguliforme (Fv), Phytophthora capsici (Pc), Rhizoctonia solani (Rs), and Septoria tritici (St).
(§2) Compounds to be tested were dissolved in DMSO at 2.5 mg/ml to produce compound stock solutions (“stocks”). Stocks were diluted with DMSO by a five-fold dilution in a 96-well stock plate, and two sets of final concentrations of 50, 10, and 2 ppm or 2, 0.4, and 0.08 ppm were obtained in vitro. A set of positive controls was also prepared, with various concentrations of Soraphen (2, 0.4, and 0.08 ppm), Metalaxyl (1.1, 0.22, and 0.04 ppm), and Metconazole (2, 0.4, and 0.08 ppm or 0.2, 0.04, and 0.008 ppm) after the five-fold dilutions. Negative controls on each plate included 2% DMSO, water, and a blank (media+2% DMSO).
(§3) Fungal spores were isolated from previously sub-cultured plates of Botrtyis cinerea (Bc), Collectotrichum graminicola (Cg), Diplodia maydis (Dm), Fusarium moniliforme (Fm), Fusarium virguliforme (Fv), Phytophthora capsici (Pc), and Septoria tritici (St). The isolated spores were diluted to individual concentrations with a 17% V8 liquid media. For Rhizoctonia solani (Rs) and Pythium irregulare, 1.5 mm mycelial plugs were used in place of spores and/4 Potato Dextrose Broth (PDB) was used for dilution. The spore concentrations and plug sizes were based on growth curves generated at 48 hours for each pathogen.
(§4) In a second 96-well plate, the spores or mycelial plugs, media, diluted compound solutions, and controls were combined. Once the compound was added, a true final concentration of compound in each well was measured by an OD600 reading, which adjusted for any compound precipitation that might have occurred in the well. Plate readings were repeated at both 24 and 48 hours. The blank negative control was used as a background subtraction. Additional visual ratings were performed at both 24 and 48 hours for checking on precipitation and confirming efficacy. Visual and OD600 ratings of the compounds at 48 hours were compared to the 2% DMSO negative control, and the percent of pathogen growth inhibition was determined based on those values.

[1] = system: Collectotrichum graminicola (Cg); test: Growth inhibition assay of fungal pathogens, Cg; format: cell-based; settings: 48 h
Procedure: as §1, §2, §3, §4

human (hACC2) = human (hACC2) (Homo sapiens, UniProt O00763); test: In vitro ACC inhibition assay (ADP-Glo), hACC2; format: biochemical; settings: 5 nM ACC2, 20 μM ATP, 20 μM acetyl-CoA
Procedure: The detailed procedure is as follows. […] 10 μL ADP glo reagent was added. […] 20 μL kinase detection reagent was added.

C. parapsilosis = test: Antifungal Activity Assay (broth microtiter MIC), C. parapsilosis; format: cell-based, Candida parapsilosis; settings: 3 replicates, MIC recorded at 48 h; for MIC: Lodderomyces parapsilosis, ATCC22019, 48 h, ATCC 22019, read-out: MIC, C. parapsilosis ATCC 22019
How it was run: (§5)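 Endpoint: lowest concentration visibly inhibiting growth relative to control after 48 h. Inoculum of 2.5×10^3 CFU/mL final in RPMI 1640+MOPS, prepared from overnight 35° C agar cultures; test compounds diluted in water to 128 μg/mL before plating.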

[2] = system: Phytophthora capsici (Pc); test: Growth inhibition assay of fungal pathogens, Pc; format: cell-based; settings: 48 h
Procedure: as §1, §2, §3, §4

Septoria tritici (St) = test: Growth inhibition assay of fungal pathogens, St; format: cell-based; settings: Zymoseptoria tritici, 48 h
Procedure: as §1, §2, §3, §4

[3] = system: Fusarium moniliforme (Fm); test: Growth inhibition assay of fungal pathogens, Fm; format: cell-based; settings: for IC90: Fusarium verticillioides, 48 h, read-out: Concentration at 90% Inhibition Fm
Procedure: as §1, §2, §3, §4

C. krusei = test: Antifungal Activity Assay (broth microtiter MIC), C. krusei; format: cell-based, Candida krusei; settings: 3 replicates, MIC recorded at 48 h; for MIC: Pichia kudriavzevii, ATCC6258, 48 h, ATCC 6258, read-out: MIC, C. krusei ATCC 6258
How it was run: as §5

[4] = system: Fusarium virguliforme (Fv); test: Growth inhibition assay of fungal pathogens, Fv; format: cell-based; settings: 48 h
Procedure: as §1, §2, §3, §4

Diplodia maydis (Dm) = test: Growth inhibition assay of fungal pathogens, Dm; format: cell-based; settings: Stenocarpella maydis, 48 h
Procedure: as §1, §2, §3, §4

Botrtyis cinerea (Bc) = test: Growth inhibition assay of fungal pathogens, Bc; format: cell-based; settings: 48 h
Procedure: as §1, §2, §3, §4

C. albicans = test: Antifungal Activity Assay (broth microtiter MIC), C. albicans; format: cell-based, Candida albicans; settings: 3 replicates, MIC recorded at 48 h; for MIC: Candida albicans, ATCC90028, 48 h, ATCC 90028, read-out: MIC, C. albicans ATCC 90028
How it was run: as §5

fungal (fACC2) = fungal (fACC2) (UniProt Q00955); settings: read-out: fACC2 (in vitro ACC2 Inhibition Assay, IC50), ADP-Glo, 5 nM ACC2, 20 μM ATP, 20 μM acetyl-CoA
[5] = Fusarium moniliforme, growth inhibition at 48 hours vs 2% DMSO control

human (hACC2), sequence (O00763 whole entry): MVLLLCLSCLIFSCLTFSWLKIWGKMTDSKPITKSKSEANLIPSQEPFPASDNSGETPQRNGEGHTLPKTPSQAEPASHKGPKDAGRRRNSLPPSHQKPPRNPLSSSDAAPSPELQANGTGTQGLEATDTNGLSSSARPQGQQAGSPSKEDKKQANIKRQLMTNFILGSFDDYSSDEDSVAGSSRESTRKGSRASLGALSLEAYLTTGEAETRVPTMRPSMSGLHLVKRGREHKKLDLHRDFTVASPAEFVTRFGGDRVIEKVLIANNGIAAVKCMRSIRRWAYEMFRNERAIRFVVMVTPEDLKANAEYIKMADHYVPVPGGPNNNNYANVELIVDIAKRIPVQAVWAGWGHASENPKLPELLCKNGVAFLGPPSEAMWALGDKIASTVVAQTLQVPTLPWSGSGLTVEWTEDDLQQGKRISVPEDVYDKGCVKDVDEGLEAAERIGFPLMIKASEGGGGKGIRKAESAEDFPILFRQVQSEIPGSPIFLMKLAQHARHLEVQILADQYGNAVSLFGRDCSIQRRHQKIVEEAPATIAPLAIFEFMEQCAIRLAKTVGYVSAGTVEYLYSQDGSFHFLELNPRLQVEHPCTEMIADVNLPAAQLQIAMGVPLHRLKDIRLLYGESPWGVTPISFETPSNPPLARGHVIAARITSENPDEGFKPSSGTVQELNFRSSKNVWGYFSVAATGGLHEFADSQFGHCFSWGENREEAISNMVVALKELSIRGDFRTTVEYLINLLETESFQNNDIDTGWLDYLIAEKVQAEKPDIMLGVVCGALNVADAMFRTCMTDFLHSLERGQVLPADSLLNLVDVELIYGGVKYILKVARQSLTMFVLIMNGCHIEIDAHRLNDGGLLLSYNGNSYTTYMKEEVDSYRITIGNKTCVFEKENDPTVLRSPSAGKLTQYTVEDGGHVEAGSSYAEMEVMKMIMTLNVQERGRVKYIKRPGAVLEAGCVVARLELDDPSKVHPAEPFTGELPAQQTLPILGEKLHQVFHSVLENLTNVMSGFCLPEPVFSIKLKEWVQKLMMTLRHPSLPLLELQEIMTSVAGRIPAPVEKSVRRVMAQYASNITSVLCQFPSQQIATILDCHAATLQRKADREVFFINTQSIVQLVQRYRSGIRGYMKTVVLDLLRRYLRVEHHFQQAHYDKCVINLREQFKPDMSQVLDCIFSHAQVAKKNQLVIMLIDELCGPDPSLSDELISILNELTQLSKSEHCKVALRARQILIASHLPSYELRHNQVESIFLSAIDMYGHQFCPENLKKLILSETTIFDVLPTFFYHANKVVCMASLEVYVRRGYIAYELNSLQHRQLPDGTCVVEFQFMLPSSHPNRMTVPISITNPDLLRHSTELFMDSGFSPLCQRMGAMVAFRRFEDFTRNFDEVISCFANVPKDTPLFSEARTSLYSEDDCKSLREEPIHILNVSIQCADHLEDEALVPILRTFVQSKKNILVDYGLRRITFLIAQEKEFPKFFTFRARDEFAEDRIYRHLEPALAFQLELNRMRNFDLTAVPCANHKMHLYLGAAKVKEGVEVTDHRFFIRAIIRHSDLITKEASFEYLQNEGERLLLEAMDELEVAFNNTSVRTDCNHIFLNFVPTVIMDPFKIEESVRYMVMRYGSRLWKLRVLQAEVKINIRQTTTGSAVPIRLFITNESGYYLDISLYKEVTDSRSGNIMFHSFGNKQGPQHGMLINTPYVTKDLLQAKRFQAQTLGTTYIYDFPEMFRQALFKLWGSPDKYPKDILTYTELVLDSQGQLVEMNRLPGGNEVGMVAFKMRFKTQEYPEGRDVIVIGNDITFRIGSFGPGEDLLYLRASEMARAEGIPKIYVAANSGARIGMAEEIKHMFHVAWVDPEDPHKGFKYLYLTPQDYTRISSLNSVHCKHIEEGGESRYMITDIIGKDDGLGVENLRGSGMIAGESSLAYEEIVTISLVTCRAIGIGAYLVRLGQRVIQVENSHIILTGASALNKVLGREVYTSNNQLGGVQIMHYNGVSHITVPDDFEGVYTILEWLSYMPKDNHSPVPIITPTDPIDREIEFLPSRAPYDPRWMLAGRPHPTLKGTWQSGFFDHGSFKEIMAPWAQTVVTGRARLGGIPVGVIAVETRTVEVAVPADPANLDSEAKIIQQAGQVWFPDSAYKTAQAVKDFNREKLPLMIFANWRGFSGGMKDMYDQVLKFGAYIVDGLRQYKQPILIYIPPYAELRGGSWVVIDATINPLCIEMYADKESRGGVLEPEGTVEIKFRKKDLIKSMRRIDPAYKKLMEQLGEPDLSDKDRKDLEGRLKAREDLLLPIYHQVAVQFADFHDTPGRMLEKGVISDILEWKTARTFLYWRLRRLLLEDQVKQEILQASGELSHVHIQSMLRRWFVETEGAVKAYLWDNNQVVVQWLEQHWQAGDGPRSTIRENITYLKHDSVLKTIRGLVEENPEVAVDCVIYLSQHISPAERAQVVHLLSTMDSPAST
fungal (fACC2), sequence (Q00955 whole entry): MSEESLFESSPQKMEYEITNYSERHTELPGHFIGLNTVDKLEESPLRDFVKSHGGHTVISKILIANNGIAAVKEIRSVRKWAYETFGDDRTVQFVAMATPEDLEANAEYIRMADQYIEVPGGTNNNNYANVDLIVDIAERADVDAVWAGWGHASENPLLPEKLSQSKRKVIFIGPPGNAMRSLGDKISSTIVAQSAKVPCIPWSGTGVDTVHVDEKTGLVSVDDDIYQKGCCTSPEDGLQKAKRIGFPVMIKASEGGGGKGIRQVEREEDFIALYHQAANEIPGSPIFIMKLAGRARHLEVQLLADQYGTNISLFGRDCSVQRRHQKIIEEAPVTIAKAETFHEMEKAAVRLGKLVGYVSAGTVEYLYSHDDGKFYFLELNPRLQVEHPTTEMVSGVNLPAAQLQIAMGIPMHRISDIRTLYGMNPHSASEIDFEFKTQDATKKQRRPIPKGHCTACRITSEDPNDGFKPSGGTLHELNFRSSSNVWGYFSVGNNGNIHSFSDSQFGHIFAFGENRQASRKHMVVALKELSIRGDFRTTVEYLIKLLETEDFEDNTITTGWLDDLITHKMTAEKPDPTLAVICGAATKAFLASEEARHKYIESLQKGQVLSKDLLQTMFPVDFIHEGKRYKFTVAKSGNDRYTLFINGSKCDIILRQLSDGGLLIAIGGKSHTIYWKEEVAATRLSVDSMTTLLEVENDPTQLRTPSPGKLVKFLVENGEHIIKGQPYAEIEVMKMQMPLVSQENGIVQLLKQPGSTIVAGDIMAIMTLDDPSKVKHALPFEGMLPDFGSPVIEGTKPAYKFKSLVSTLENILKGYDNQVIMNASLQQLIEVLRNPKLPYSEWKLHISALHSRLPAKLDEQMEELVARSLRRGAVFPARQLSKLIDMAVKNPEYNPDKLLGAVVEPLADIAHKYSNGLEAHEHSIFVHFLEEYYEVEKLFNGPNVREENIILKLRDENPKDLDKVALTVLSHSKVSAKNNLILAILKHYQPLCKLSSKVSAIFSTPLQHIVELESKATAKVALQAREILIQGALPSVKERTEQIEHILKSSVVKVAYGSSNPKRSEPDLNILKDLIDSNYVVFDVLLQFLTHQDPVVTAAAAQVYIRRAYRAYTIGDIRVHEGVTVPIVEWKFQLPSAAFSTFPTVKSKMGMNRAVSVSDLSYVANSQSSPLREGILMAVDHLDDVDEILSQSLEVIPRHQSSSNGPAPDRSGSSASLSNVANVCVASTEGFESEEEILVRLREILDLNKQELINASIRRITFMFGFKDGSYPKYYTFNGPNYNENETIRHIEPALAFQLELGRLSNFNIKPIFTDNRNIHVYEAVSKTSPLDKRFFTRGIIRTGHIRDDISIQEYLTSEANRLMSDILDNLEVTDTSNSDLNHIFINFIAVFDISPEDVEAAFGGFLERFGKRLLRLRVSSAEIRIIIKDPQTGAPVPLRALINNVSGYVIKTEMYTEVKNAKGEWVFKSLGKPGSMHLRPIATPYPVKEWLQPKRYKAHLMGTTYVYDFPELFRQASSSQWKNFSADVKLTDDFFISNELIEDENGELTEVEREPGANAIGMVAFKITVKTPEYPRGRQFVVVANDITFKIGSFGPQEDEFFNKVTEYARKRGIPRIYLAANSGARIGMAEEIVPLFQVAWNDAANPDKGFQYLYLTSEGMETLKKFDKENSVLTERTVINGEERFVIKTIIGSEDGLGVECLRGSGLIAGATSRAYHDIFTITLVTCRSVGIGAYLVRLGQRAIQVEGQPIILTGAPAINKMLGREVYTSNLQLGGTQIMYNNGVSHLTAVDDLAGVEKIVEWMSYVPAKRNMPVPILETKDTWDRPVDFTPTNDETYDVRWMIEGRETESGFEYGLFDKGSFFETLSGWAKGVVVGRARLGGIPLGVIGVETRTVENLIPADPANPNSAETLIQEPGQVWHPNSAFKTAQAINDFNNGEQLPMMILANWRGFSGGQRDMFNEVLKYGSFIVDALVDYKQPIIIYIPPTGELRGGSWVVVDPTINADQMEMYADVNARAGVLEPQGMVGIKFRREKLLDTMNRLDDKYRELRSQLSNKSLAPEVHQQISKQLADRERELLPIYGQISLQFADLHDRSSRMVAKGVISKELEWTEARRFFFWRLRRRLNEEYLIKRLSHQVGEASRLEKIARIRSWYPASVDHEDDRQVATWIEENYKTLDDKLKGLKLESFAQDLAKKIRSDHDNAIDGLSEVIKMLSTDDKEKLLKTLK

For COc1ccc(F)cc1[C@H](Cn1c(=O)n(C(C)(C)C(=O)O)c(=O)c2c(C)c(-n3nccn3)sc21)OC1CCC(=O)CC1 [Compound I-30, (R)-2-(1-(2-(5-fluoro-2-methoxyphenyl)-2-((4-oxocyclo-hexyl)oxy)ethyl)-5-methyl-2,4-dioxo-6-(2H-1,2,3-triazol-2-yl)-1,4-dihydrothieno[2,3-d]pyrimidin-3(2H)-yl)-2-methylpropanoic acid], the IC90 (Rhizoctonia solani (Rs); mycelial plugs, growth inhibition at 48 hours vs 2% DMSO control, read-out: Concentration at 90% Inhibition Rs) was 10 µg/mL (≈ 16.7 µM), the IC90 ([1]; Collectotrichum graminicola, growth inhibition at 48 hours vs 2% DMSO control, read-out: Concentration at 90% Inhibition Cg) was > 50 µg/mL and the IC50 (human (hACC2); Table 2a) was 1 to 5 nM. It also gave an IC50 (human (hACC2); Table 2b, additional results) of 1 to 5 nM, an MIC (C. parapsilosis; Table 3a) of 2.1 to 4 µg/mL (≈ 3.5 to 6.67 µM) and an MIC (C. parapsilosis; Table 3b (additional results)) of 2.01 to 4 µg/mL (≈ 3.35 to 6.67 µM). The IC90 ([2]; growth inhibition at 48 hours vs 2% DMSO control, read-out: Concentration at 90% Inhibition Pc) was > 50 µg/mL, the IC90 (Septoria tritici (St); Septoria tritici, growth inhibition at 48 hours vs 2% DMSO control, read-out: Concentration at 90% Inhibition St) was > 50 µg/mL and the IC90 [3, 5] was 2 µg/mL (≈ 3.34 µM). For the same compound, the MIC (C. krusei; Table 3a) was 2.1 to 4 µg/mL (≈ 3.5 to 6.67 µM), the MIC (C. krusei; Table 3b (additional results)) was 1.01 to 2 µg/mL (≈ 1.68 to 3.34 µM) and the IC90 ([4]; growth inhibition at 48 hours vs 2% DMSO control, read-out: Concentration at 90% Inhibition Fv) was > 50 µg/mL. The IC90 (Diplodia maydis (Dm); Diplodia maydis, growth inhibition at 48 hours vs 2% DMSO control, read-out: Concentration at 90% Inhibition Dm) was > 50 µg/mL, the IC90 (Botrtyis cinerea (Bc); Botrtyis cinerea, growth inhibition at 48 hours vs 2% DMSO control, read-out: Concentration at 90% Inhibition Bc) was 10 µg/mL (≈ 16.7 µM) and the MIC (C. albicans; Table 3a) was 2.1 to 4 µg/mL (≈ 3.5 to 6.67 µM). For the same compound, the MIC (C. albicans; Table 3b (additional results)) was 1.01 to 2 µg/mL (≈ 1.68 to 3.34 µM).
COCCO[C@@H](Cn1c(=O)n([C@@H](C)C(=O)NC(C)C)c(=O)c2c(C)c(-n3nccn3)sc21)c1cc(F)ccc1OC [Compound I-66, (S)-2-(1-((R)-2-(5-fluoro-2-methoxyphenyl)-2-(2-methoxy-ethoxy)ethyl)-5-methyl-2,4-dioxo-6-(2H-1,2,3-triazol-2-yl)-1,4-dihydrothieno[2,3-d]pyrimidin-3(2H)-yl)-N-isopropylpropanamide] showed an IC90 (Rhizoctonia solani (Rs); read-out: Concentration at 90% Inhibition Rs, Rhizoctonia solani, mycelial plugs, growth inhibition at 48 hours vs 2% DMSO control) of 0.4 µg/mL (≈ 0.68 µM), an IC90 (Rhizoctonia solani (Rs); read-out: Concentration at 90% Inhibition Rs, Rhizoctonia solani, mycelial plugs, growth inhibition vs 2% DMSO control at 48 hours) of 0.08 µg/mL (≈ 0.136 µM) and an IC90 ([1]; read-out: Concentration at 90% Inhibition Cg, Collectotrichum graminicola, growth inhibition at 48 hours vs 2% DMSO control) of 0.4 µg/mL (≈ 0.68 µM). The IC90 ([1]; read-out: Concentration at 90% Inhibition Cg, Collectotrichum graminicola, growth inhibition vs 2% DMSO control at 48 hours) was 0.4 µg/mL (≈ 0.68 µM), the IC50 (human (hACC2); Table 2a) was 5 to 10 nM and the IC50 (human (hACC2); Table 2b, additional results) was 5 to 10 nM. The “MIC, C. parapsilosis ATCC 22019” value (C. parapsilosis; Table 3a) was “B (MIC of 1.1-2.0 μg/mL)”, the “MIC, C. parapsilosis ATCC 22019” value (C. parapsilosis; Table 3b (additional results)) was “B (MIC of 1.01-2.0 μg/mL)” and the IC90 ([2]; read-out: Concentration at 90% Inhibition Pc, Phytophthora capsici, growth inhibition at 48 hours vs 2% DMSO control) was 10 µg/mL (≈ 17 µM). For the same compound, the IC90 ([2]; read-out: Concentration at 90% Inhibition Pc, Phytophthora capsici, growth inhibition vs 2% DMSO control at 48 hours) was > 50 µg/mL, the IC90 (Septoria tritici (St); read-out: Concentration at 90% Inhibition St, Septoria tritici, growth inhibition at 48 hours vs 2% DMSO control) was > 50 µg/mL and the IC90 (Septoria tritici (St); read-out: Concentration at 90% Inhibition St, Septoria tritici, growth inhibition vs 2% DMSO control at 48 hours) was > 50 µg/mL. For the same compound, the “Concentration at 90% Inhibition Fm” value [3, 5] was “AA (compound concentration of 0.08 ppm at 90% inhibition of fungal pathogens)”, the IC90 [3] was 0.08 µg/mL (≈ 0.136 µM) and the “MIC, C. krusei ATCC 6258” value (C. krusei; Table 3a) was “B (MIC of 1.1-2.0 μg/mL)”. The “MIC, C. krusei ATCC 6258” value (C. krusei; Table 3b (additional results)) was “C (MIC of 2.01-4.0 μg/mL)”, the IC90 ([4]; read-out: Concentration at 90% Inhibition Fv, Fusarium virguliforme, growth inhibition at 48 hours vs 2% DMSO control) was 0.4 µg/mL (≈ 0.68 µM) and the IC90 ([4]; read-out: Concentration at 90% Inhibition Fv, Fusarium virguliforme, growth inhibition vs 2% DMSO control at 48 hours) was 0.4 µg/mL (≈ 0.68 µM). For the same compound, the IC90 (Diplodia maydis (Dm); read-out: Concentration at 90% Inhibition Dm, Diplodia maydis, growth inhibition at 48 hours vs 2% DMSO control) was 0.4 µg/mL (≈ 0.68 µM), the IC90 (Diplodia maydis (Dm); read-out: Concentration at 90% Inhibition Dm, Diplodia maydis, growth inhibition vs 2% DMSO control at 48 hours) was 0.4 µg/mL (≈ 0.68 µM) and the IC90 (Botrtyis cinerea (Bc); read-out: Concentration at 90% Inhibition Bc, Botrtyis cinerea, growth inhibition at 48 hours vs 2% DMSO control) was 2 µg/mL (≈ 3.4 µM). For the same compound, the IC90 (Botrtyis cinerea (Bc); read-out: Concentration at 90% Inhibition Bc, Botrtyis cinerea, growth inhibition vs 2% DMSO control at 48 hours) was 2 µg/mL (≈ 3.4 µM), the “MIC, C. albicans ATCC 90028” value (C. albicans; Table 3a) was “C (MIC of 2.1-4.0 μg/mL)” and the “MIC, C. albicans ATCC 90028” value (C. albicans; Table 3b (additional results)) was “D (MIC of >4.01 μg/mL)”. For the same compound, the IC50 (fungal (fACC2); Table 2a) was 1 to 5 nM and the IC50 (fungal (fACC2); Table 2b, additional results) was 1 to 5 nM.
